Assays:
[1] = system: HCT-116 (colon carcinoma); experiment: SRB anticancer assay, HCT-116; assay type: cell-based, human; conditions: for IC50: SRB stain, 48 hours at 37° C., absorbance 564 nm
Description: (§1) Investigation for the bio-reactivity of H2L and PdL, as anticancer candidates, was achieved versus well documented human cancer cell lines, as three cancers entitled HepG2, MCF-7, and HCT-116, using the simplest tool SRB (sulforhodamine-B-stain). In particular, the most popular anticancer referenced drug (vinblastine) was used in the anticancer assay (the inhibited action of the cancer cells) to compare its bio-reactivity versus that one of H2L and PdL.
(§2) With HepG-2 (Hepatocellular carcinoma), HCT-116 (colon carcinoma), and MCF7 (breast adenocarcinoma), as human cancer cell lines, the antiproliferative reactivity of H2L and PdL was studied against the growth of these cancer cells by applying a spectrometric tool. Using SRB (sulforhodamine-B-stain) was essential in the spectrometric studies at a specific wavelength (564 nm, the optimized absorption wavelength). Recording the corresponded absorbance (A) at 564 nm was accomplished using a UV/Vis. spectrophotometer, UV-1800 mode Shimadzu with a mono-cell holder. With plates of 96-multiwell model, the culture of the current human cancer cell lines of 10^4 cells per well were accomplished followed by a gentle addition of DMSO solution of H2L or PdL the cultured wells of the cancer cell lines.
(§3) The resulting mixed solution of H2L or PdL solution with the subjected cancer cell line of human in SRB was assigned in incubated isolated atmosphere for 48 hours at 37° C. The isolated atmosphere was accomplished by CO2 gas bubbling with v/v […].
(§4) The same procedure was followed with vinblastine, as vinblastine was subjected as a reference anticancer agent to compare its reactivity against that one of the studied H2L and PdL. For WI-38, as the normal human fetal lung fibroblast, the pervious procedure of the cancer cell lines was applied for H2L and PdL to evaluate their selectivity index. Using Eq. 1, below, to derive the inhibited potential of H2L or PdL against the growth of the human cancer and normal cell lines through their effective concentration in M (IC50, the half effective concentration of H2L or PdL): […]

[2] = system: MCF7 (breast adenocarcinoma); experiment: SRB anticancer assay, MCF-7; assay type: cell-based, human; conditions: for IC50: SRB stain, 48 hours at 37° C., absorbance 564 nm
Description: as §1, §2, §3, §4

[3] = system: HepG-2 (Hepatocellular carcinoma); experiment: SRB anticancer assay, HepG-2; assay type: cell-based, human; conditions: for IC50: SRB stain, 48 hours at 37° C., absorbance 564 nm
Description: as §1, §2, §3, §4

[4] = system: WI-38, normal human fetal lung fibroblast; experiment: SRB assay on normal cell line WI-38; assay type: cell-based; conditions: SRB stain, 48 hours at 37° C.
Description: as §1
as §2, with “lines. […]” for “lines.”

Row | Structure (SMILES) | IC50 [1] [µM] | Selectivity index HCT-116 ([1]; normal WI-38 versus HCT-116) | IC50 [2] [µM] | Selectivity index MCF-7 ([2]; normal WI-38 versus MCF-7) | IC50 [3] [µM] | Selectivity index HepG-2 ([3]; normal WI-38 versus HepG-2) | IC50 [4] [µM] | IC50 ([1]; Homo sapiens, HCT-116) [µM] | IC50 ([2]; Homo sapiens, MCF7) [µM] | IC50 ([3]; Homo sapiens, HepG2) [µM]
1 | O=C(CC(=O)NN=C1C(=O)Nc2ccccc21)NN=C1C(=O)Nc2ccccc21 [H2L, malonyl dihydrazone-isatin ligand] | 49.6 | 2.71 | 43.1 | 3.09 | 48.6 | 2.77 | 133 ± 0.75 | – | – | –
2 | CC[C@]1(O)C[C@@H]2CN(CCc3c([nH]c4ccccc34)[C@@](C(=O)OC)(c3cc4c(cc3OC)N(C)[C@H]3[C@@](O)(C(=O)OC)[C@H](OC(C)=O)[C@]5(CC)C=CCN6CC[C@]43[C@@H]65)C2)C1 [Vinblastine, vinblastine, reference compound] | – | – | – | – | – | – | – | 13.3 ± 0.11 | 4.12 ± 0.14 | 7.5 ± 0.1
